Reference: patent publication US20100137313A1 (ASTRAZENECA AB, priority 2008, published 2010)

What follows are molecules tested against S. pneumoniae Topoisomerase IV ATPase (ParE) (Streptococcus pneumoniae serotype 4, UniProt Q59961) (assay: S. pneumoniae Topoisomerase IV ATPase inhibition). Conditions: values marked * are an average of two or more data points, read-out: % Inh (13 μM) of S. pneumoniae Topoisomerase IV ATPase.
Format: biochemical
Method in brief: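 Phosphate release by ParE ATPase from S. pneumoniae read colorimetrically (malachite green, 650 nm), enzyme 1.25 nM, ATP 160 μM, salmon sperm DNA present, buffer 20 mM Tris pH 8.0 with 8 mM MgCl2. IC50 over 10 compound concentrations, EDTA (20 μM) and DMSO controls defining inhibition range.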

S. pneumoniae Topoisomerase IV ATPase (ParE), sequence (Q59961 whole entry): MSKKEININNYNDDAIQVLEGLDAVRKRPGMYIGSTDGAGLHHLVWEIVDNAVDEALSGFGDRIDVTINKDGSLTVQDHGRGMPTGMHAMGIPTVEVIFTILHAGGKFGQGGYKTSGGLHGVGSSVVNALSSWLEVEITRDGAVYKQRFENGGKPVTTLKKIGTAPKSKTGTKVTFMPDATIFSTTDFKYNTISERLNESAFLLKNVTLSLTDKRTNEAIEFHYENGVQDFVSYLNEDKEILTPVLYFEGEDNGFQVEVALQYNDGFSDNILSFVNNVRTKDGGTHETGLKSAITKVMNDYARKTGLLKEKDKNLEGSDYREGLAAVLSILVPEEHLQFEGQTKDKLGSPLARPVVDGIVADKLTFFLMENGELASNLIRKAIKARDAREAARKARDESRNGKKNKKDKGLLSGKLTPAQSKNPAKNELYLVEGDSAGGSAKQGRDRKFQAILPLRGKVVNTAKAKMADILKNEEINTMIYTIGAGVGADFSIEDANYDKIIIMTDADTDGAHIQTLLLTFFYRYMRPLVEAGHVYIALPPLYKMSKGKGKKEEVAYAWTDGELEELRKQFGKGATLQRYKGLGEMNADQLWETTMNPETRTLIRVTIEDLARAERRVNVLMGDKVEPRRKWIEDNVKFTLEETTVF

SMILES | inhibition at 13 µM
O=C(O)/C=C/c1cccc(-c2cnc(Nc3ccc(F)c(Cl)c3)nc2N2CCN(C(=O)C3CC3)CC2)c1 [Example 287, (E)-3-(3-(2-(3-chloro-4-fluorophenylamino)-4-(4-(cyclopropanecarbonyl)-piperazin-1-yl)pyrimidin-5-yl)phenyl)acrylic acid] | 97.2%
COc1cc(Nc2ncc(-c3cnc(OC)c(C(=O)NS(=O)(=O)CCN4C(=O)CCC4=O)c3)c(-n3nc(C(F)(F)F)cc3C)n2)cc(OC)c1 [Example 848, 5-{2-[(3,5-dimethoxyphenyl)amino]-4-[5-methyl-3-(trifluoromethyl)-1H-pyrazol-1-yl]pyrimidin-5-yl}-N-{[2-(2,5-dioxopyrrolidin-1-yl)ethyl]sulfonyl}-2-methoxypyridine-3-carboxamide] | 100%
O=C(O)c1cncc(-c2cnc(Nc3ccc(F)c(Cl)c3)nc2N2CCC2)c1 [Example 253, 5-[4-(azetidin-1-yl)-2-[(3-chloro-4-fluorophenyl)amino]-pyrimidin-5-yl]pyridine-3-carboxylic acid] | 75.1%
Cc1cc(C(F)(F)F)nn1-c1nc(Nc2cccc(S(C)(=O)=O)c2)ncc1-c1cncc(C(=O)O)c1 [Example 644, 5-(2-{[3-(methylsulfonyl)phenyl]amino}-4-[5-methyl-3-(trifluoromethyl)-1H-pyrazol-1-yl]pyrimidin-5-yl)pyridine-3-carboxylic acid] | 84%
Cc1cnc(C(=O)NCCCNc2nc(Nc3ccc(F)c(Cl)c3)ncc2-c2cncc(C(=O)O)c2)cn1 [Example 278] | 77%
COc1cc(F)cc(Nc2ncc(-c3cncc(C(=O)O)c3)c(-n3nc(C(F)(F)F)cc3C)n2)c1 [Example 916, 5-(2-(3-fluoro-5-methoxyphenylamino)-4-(5-methyl-3-(trifluoromethyl)-1H-pyrazol-1-yl)pyrimidin-5-yl)nicotinic acid] | 99%
CN(C)CCCNc1nc(Nc2ccc(F)c(Cl)c2)ncc1-c1cc2ccccc2o1 [Example 9, 5-(benzofuran-2-yl)-N^2-(3-chloro-4-fluorophenyl)-N^4-(3-(dimethylamino)propyl)pyrimidine-2,4-diamine] | 60%
CCOC(=O)c1cncc(-c2cnc(Nc3ccc(F)c(Cl)c3)nc2N2CCOCC2)c1 [Example 144, ethyl 5-(2-(3-chloro-4-fluorophenylamino)-4-morpholinopyrimidin-5-yl)nicotinate] | 76.4%
Fc1ccc(Nc2ncc(-c3cncnc3)c(-n3cnc(Cl)c3Cl)n2)cc1Cl [Example 72, N-(3-chloro-4-fluorophenyl)-4-(4,5-dichloro-1H-imidazol-1-yl)-5,5′-bipyrimidin-2-amine] | 52.6%
NC(=O)c1cncc(-c2cnc(Nc3ccc(F)c(Cl)c3)nc2NCCc2cccnc2)c1 [Example 473, 5-(2-[(3-chloro-4-fluorophenyl)amino]-4-{[2-(pyridin-3-yl)ethyl]amino}pyrimidin-5-yl)-pyridine-3-carboxamide] | 62%
COCCOc1ncc(-c2cnc(Nc3ccc(F)c(Cl)c3)nc2-n2ccc(C(F)(F)F)n2)cc1C(=O)O [Example 1133, 5-(2-(3-chloro-4-fluorophenylamino)-4-(3-(trifluoromethyl)-1H-pyrazol-1-yl)pyrimidin-5-yl)-2-(2-methoxyethoxy)nicotinic acid] | 100%
N#Cc1cc(F)cc(Nc2ncc(-c3cccc(/C=C/C(=O)O)c3)c(N3CCOCC3)n2)c1 [Example 407, (E)-3-{3-[2-(3-Cyano-5-fluoro-phenylamino)-4-morpholin-4-yl-pyrimidin-5-yl]-phenyl}-acrylic acid] | 86%
Cc1cc(C(F)(F)F)nn1-c1nc(Nc2ccc(F)c(Cl)c2)ncc1-c1cc(C(=O)O)c(=O)n(CCO)c1 [Example 1084, 5-(2-(3-Chloro-4-fluorophenylamino)-4-(5-methyl-3-(trifluoromethyl)-1H-pyrazol-1-yl)pyrimidin-5-yl)-1-(2-hydroxyethyl)-2-oxo-1,2-dihydropyridine-3-carboxylic acid] | 100%
